Where a name gives a salt, the structure may show the parent alone.
Columns and labels:
[1] = target: T1, soluble guanylate cyclase (sGC) (Rattus norvegicus, UniProt P20595); experiment: Stimulation of sGC enzyme activity (PPi detection, luciferase luminescence); assay type: biochemical; settings: for EC50: read-out: EC50 (half-maximal effective concentration), activating action at the sGC enzyme in vitro
T1 construct: made in house
T1 sequence (P20595 1-619): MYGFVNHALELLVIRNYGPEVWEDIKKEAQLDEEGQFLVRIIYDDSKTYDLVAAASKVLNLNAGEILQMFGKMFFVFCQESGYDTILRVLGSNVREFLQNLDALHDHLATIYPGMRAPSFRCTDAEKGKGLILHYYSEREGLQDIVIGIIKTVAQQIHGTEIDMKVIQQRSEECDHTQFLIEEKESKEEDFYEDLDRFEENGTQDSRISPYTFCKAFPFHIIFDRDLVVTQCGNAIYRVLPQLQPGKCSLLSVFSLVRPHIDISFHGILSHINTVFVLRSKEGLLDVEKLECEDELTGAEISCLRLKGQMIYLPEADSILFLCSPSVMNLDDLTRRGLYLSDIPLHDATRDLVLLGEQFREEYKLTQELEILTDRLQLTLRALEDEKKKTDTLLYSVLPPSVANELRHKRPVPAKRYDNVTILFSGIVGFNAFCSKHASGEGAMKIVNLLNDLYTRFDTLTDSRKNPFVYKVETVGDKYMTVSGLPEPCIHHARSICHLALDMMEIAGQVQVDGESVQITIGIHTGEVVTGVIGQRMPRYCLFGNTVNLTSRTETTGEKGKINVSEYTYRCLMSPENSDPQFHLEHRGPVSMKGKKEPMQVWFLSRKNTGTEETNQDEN
T1 sequence (P19686 1-690 partner): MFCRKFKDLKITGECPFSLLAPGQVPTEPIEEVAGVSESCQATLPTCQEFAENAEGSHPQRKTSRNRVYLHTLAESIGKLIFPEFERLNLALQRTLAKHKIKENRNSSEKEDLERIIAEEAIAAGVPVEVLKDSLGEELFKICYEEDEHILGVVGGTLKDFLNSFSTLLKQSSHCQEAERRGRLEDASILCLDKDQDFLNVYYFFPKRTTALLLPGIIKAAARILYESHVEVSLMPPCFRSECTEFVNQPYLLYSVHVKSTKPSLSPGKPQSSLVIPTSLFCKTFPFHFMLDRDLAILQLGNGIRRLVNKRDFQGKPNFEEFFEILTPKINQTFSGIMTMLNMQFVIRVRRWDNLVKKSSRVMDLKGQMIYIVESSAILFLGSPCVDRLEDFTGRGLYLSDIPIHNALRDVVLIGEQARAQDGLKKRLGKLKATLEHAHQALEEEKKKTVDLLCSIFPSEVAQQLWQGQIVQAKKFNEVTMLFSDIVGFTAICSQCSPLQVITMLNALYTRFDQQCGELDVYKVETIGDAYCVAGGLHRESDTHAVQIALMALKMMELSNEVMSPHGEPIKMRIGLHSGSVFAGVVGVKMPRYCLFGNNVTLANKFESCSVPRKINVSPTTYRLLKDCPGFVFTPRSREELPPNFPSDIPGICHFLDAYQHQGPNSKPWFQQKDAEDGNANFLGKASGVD
Procedure: B-3. Stimulation of sGC Enzyme Activity
Soluble guanylate cyclase (sGC) converts on stimulation GTP into cGMP and pyrophosphate (PPi). PPi is detected with the aid of the assay described below. The signal produced in the assay increases as the reaction progresses and serves as a measure of the sGC enzyme activity under the given stimulation.
To carry out the assay, 29 μl of enzyme solution [0-10 nM soluble guanylate cyclase (prepared according to Hönicka et al., J. Mol. Med. 77, 14-23 (1999)) in 50 mM TEA, 2 mM MgCl2, 0.1% BSA (fraction V), 0.005% Brij®, pH 7.5] are initially introduced into a microplate, and 1 μl of the substance to be tested (as a serially diluted solution in DMSO) is added. The mixture is incubated at room temperature for 10 min. Then 20 μl of detection mix [1.2 nM Firefly Luciferase (Photinus pyralis luciferase, Promega), 29 μM dehydroluciferin (prepared according to Bitler & McElroy, Arch. Biochem. Biophys. 72, 358 (1957)), 122 μM luciferin (Promega), 153 μM ATP (Sigma) and 0.4 mM DTT (Sigma) in 50 mM TEA, 2 mM MgCl2, 0.1% BSA (fraction V), 0.005% Brij®, pH 7.5] are added. The enzyme reaction is started by adding 20 μl of substrate solution [1.25 mM guanosine 5′-triphosphate (Sigma) in 50 mM TEA, 2 mM MgCl2, 0.1% BSA (fraction V), 0.005% Brij®, pH 7.5] and measured continuously in a luminometer. The extent of the stimulation by the substance to be tested can be determined relative to the signal of the unstimulated reaction.
The activation of haem-free guanylate cyclase is examined by addition of 25 μM of 1H-1,2,4-oxadiazolo[4,3-a]quinoxalin-1-one (ODQ) to the enzyme solution and subsequent incubation for 30 minutes and compared to the stimulation of the native enzyme.

[2] = target: T2, recombinant guanylate cyclase reporter cell line (sGC, CHO reporter cell) (Rattus norvegicus, UniProt P20595); experiment: Effect on a recombinant guanylate cyclase reporter cell line (CHO reporter cell); assay type: cell-based
T2 construct: expressed in transfected cells; host or cells: CHO reporter cell line
T2 sequence (P20595 1-619): T1 sequence (P20595 1-619)
T2 sequence (P19686 1-690 partner): T1 sequence (P19686 1-690 partner)
Procedure: B-2. Effect on a Recombinant Guanylate Cyclase Reporter Cell Line The cellular activity of the compounds according to the invention is determined using a recombinant guanylate cyclase reporter cell line, as described in F. Wunder et al., Anal. Biochem. 339, 104-112 (2005).

## O=C(Nc1cc(CC2(C(=O)O)CC2)ccc1F)C(C1CCCC1)N1CCc2ccccc2C1 (racemic) [Example 53, rac-1-(3-{[Cyclopentyl(3,4-dihydroisoquinolin-2(1H)-yl)acetyl]amino}-4-fluorobenzyl)cyclopropanecarboxylic acid trifluoroacetate]
[1]
  MEC (minimum effective concentration), activating action at the sGC enzyme in vitro: 160 nM
  EC50: 840 nM
[2]
  MEC (minimum effective concentration), sGC-activating activity in the CHO reporter cell in vitro: 100 nM

## CCC1CCN(C(C(=O)Nc2cc(CC3(C(=O)O)CC3)ccc2F)C(C)C(F)(F)F)CC1 (single isomer, unassigned) [Example 8, 1-(3-{[2-(4-ethylpiperidin-1-yl)-4,4,4-trifluoro-3-methylbutanoyl]amino}-4-fluorobenzyl)cyclopropanecarboxylic acid]
[1]
  MEC (minimum effective concentration), activating action at the sGC enzyme in vitro: 1.2 nM
  EC50: 21 nM
[2]
  MEC (minimum effective concentration), sGC-activating activity in the CHO reporter cell in vitro: 0.3 nM

## CCC1CCN(C(C(=O)Nc2cc(CCC(=O)O)ccc2Cl)C(C)C(F)(F)F)CC1 (single isomer, unassigned) [Example 11, 3-(4-chloro-3-{[2-(4-ethylpiperidin-1-yl)-4,4,4-trifluoro-3-methylbutanoyl]amino}phenyl)propanoic acid]
[1]
  MEC (minimum effective concentration), activating action at the sGC enzyme in vitro: 17 nM
  EC50: 390 nM
[2]
  MEC (minimum effective concentration), sGC-activating activity in the CHO reporter cell in vitro: 10 nM

## CCC1CCN([C@@H](C(=O)Nc2cc(CC3(C(=O)O)CC3)ccc2F)[C@@H](C)C(F)(F)F)CC1 (single isomer, unassigned) [Example 39]
[1]
  MEC (minimum effective concentration), activating action at the sGC enzyme in vitro: 1.1 nM
  EC50: 7.9 nM
[2]
  MEC (minimum effective concentration), sGC-activating activity in the CHO reporter cell in vitro: 0.3 nM

## C[C@H]([C@H](C(=O)Nc1cc(C[C@H](C)C(=O)O)ccc1Cl)N1CCC2(CC1)CC2)C(F)(F)F (single isomer, unassigned) [Example 46]
[1]
  MEC (minimum effective concentration), activating action at the sGC enzyme in vitro: 17 nM
  EC50: 210 nM
[2]
  MEC (minimum effective concentration), sGC-activating activity in the CHO reporter cell in vitro: 10 nM

## C[C@H](CC(=O)O)c1ccc(Cl)c(NC(=O)[C@@H]([C@@H](C)C(F)(F)F)N2CCC3(CC2)CC3)c1 (single isomer, unassigned) [Example 47]
[1]
  MEC (minimum effective concentration), activating action at the sGC enzyme in vitro: 3.9 nM
  EC50: 81 nM
[2]
  MEC (minimum effective concentration), sGC-activating activity in the CHO reporter cell in vitro: 1 nM

## CC1CCN([C@@H](C(=O)Nc2cc([C@H](C)CC(=O)O)ccc2Cl)[C@@H](C)C(F)(F)F)CC1 (single isomer, unassigned) [Example 48]
[1]
  MEC (minimum effective concentration), activating action at the sGC enzyme in vitro: 1.1 nM
  EC50: 33 nM
[2]
  MEC (minimum effective concentration), sGC-activating activity in the CHO reporter cell in vitro: 3 nM

## CC1CCN(C(C(=O)Nc2cc(CC3(C(=O)O)CC3)ccc2F)C(C)C(F)(F)F)CC1 (single isomer, unassigned; (+)) [Example 36, (+)-1-(4-Fluoro-3-{[4,4,4-trifluoro-3-methyl-2-(4-methylpiperidin-1-yl)butanoyl]amino}benzyl)cyclopropanecarboxylic acid]
[1]
  MEC (minimum effective concentration), activating action at the sGC enzyme in vitro: 3 nM
  EC50: 25 nM
[2]
  MEC (minimum effective concentration), sGC-activating activity in the CHO reporter cell in vitro: 2.3 nM

## C[C@H]([C@H](C(=O)Nc1cc(CCC(=O)O)ccc1F)N1CCC(C2CC2)CC1)C(F)(F)F [Example 18]
[1]
  MEC (minimum effective concentration), activating action at the sGC enzyme in vitro: 6.9 nM
  EC50: 540 nM
[2]
  MEC (minimum effective concentration), sGC-activating activity in the CHO reporter cell in vitro: 30 nM

## CCC1CCN([C@@H](C(=O)Nc2cc(CC3(C(=O)O)CC3)ccc2Cl)[C@@H](C)C(F)(F)F)CC1 [Example 26, 1-(4-Chloro-3-{[(2R,3R)-2-(4-ethylpiperidin-1-yl)-4,4,4-trifluoro-3-methylbutanoyl]amino}benzyl)cyclopropanecarboxylic acid]
[1]
  MEC (minimum effective concentration), activating action at the sGC enzyme in vitro: 0.8 nM
  EC50: 10 nM
[2]
  MEC (minimum effective concentration), sGC-activating activity in the CHO reporter cell in vitro: 1 nM

## CC1CCN([C@@H](C(=O)Nc2cc(C[C@H](C)C(=O)O)ccc2Cl)[C@@H](C)C(F)(F)F)CC1 [Example 27]
[1]
  MEC (minimum effective concentration), activating action at the sGC enzyme in vitro: 10.5 nM
  EC50: 210 nM
[2]
  MEC (minimum effective concentration), sGC-activating activity in the CHO reporter cell in vitro: 10 nM

## C[C@H]([C@H](C(=O)Nc1cc(C[C@H](C)C(=O)O)ccc1F)N1CCC2(CC1)CC2)C(F)(F)F [Example 28]
[2]
  MEC (minimum effective concentration), sGC-activating activity in the CHO reporter cell in vitro: 20 nM

## C[C@H](Cc1ccc(Cl)c(NC(=O)[C@@H]([C@@H](C)C(F)(F)F)N2CCC3(CC2)CC3)c1)C(=O)O [Example 29]
[2]
  MEC (minimum effective concentration), sGC-activating activity in the CHO reporter cell in vitro: 30 nM

## CC1CCN([C@@H](C(=O)Nc2cc(C[C@@H](C)C(=O)O)ccc2F)[C@@H](C)C(F)(F)F)CC1 [Example 30]
[2]
  MEC (minimum effective concentration), sGC-activating activity in the CHO reporter cell in vitro: 300 nM

## CC1CCN([C@@H](C(=O)Nc2cc(C[C@@H](C)C(=O)O)ccc2Cl)[C@@H](C)C(F)(F)F)CC1 [Example 31]
[2]
  MEC (minimum effective concentration), sGC-activating activity in the CHO reporter cell in vitro: 100 nM

## CC1CCN([C@@H](C(=O)Nc2cc(C[C@H](C)C(=O)O)ccc2F)[C@@H](C)C(F)(F)F)CC1 [Example 32]
[2]
  MEC (minimum effective concentration), sGC-activating activity in the CHO reporter cell in vitro: 30 nM

## C[C@H](Cc1ccc(F)c(NC(=O)[C@@H]([C@@H](C)C(F)(F)F)N2CCC3(CC2)CC3)c1)C(=O)O [Example 33]
[2]
  MEC (minimum effective concentration), sGC-activating activity in the CHO reporter cell in vitro: 300 nM

## C[C@H]([C@H](C(=O)Nc1cc(C[C@H](C)C(=O)O)ccc1Cl)N1CCC(C(F)(F)F)CC1)C(F)(F)F [Example 34]
[1]
  MEC (minimum effective concentration), activating action at the sGC enzyme in vitro: 10.5 nM
  EC50: 90 nM
[2]
  MEC (minimum effective concentration), sGC-activating activity in the CHO reporter cell in vitro: 10 nM
